Results: the NIST ThermoML archive (doi:10.1016/j.jct.2012.02.017)

How the values were obtained:
[1] = Ring tensiometer
[2] = xn = mol fraction of the nth substance listed; conditions: Ring tensiometer

CCO [ethanol]
[1]
Conditions	surface tension liquid-gas [mN/m]
288.15 K	22.08
298.15 K	21.19
308.15 K	20.35
318.15 K	20.18

CO [methanol]
[1]
Conditions	surface tension liquid-gas [mN/m]
288.15 K	22.37
298.15 K	21.64
308.15 K	20.94
318.15 K	19.93

CCCO [propan-1-ol]
[1]
Conditions	surface tension liquid-gas [mN/m]
288.15 K	23.34
298.15 K	22.54
308.15 K	21.62
318.15 K	20.99

[2H]O[2H] [water-d2]
[1]
Conditions	surface tension liquid-gas [mN/m]
288.15 K	73.59
298.15 K	71.87
308.15 K	70.21
318.15 K	68.84

[2H]O[2H] [water-d2] + CCCO
surface tension liquid-gas [mN/m], [2]
Conditions	288.15 K	298.15 K	308.15 K	318.15 K
x2 = 0.0007	70.61	68.81	67.5	66.16
x2 = 0.002	66.37	63.94	62.32	61.9
x2 = 0.0033	62.9	58.5	56.44	54.18
x2 = 0.0047	60.07	55.76	53.57	50.4
x2 = 0.006	57.59	54.16	52.75	48.26
x2 = 0.0099	52.32	48.49	46.75	45.22
x2 = 0.0165	45.84	43.67	40.52	39.54
x2 = 0.0255	41.34	39.38	38.39	37.11
x2 = 0.038	36.34	34.78	33.31	32.45
x2 = 0.0622	29	28.09	27.45	27.03
x2 = 0.138	25.81	24.9	24.75	23.58
x2 = 0.1851	25.78	25.09	24.19	23.62
x2 = 0.2272	25.17	24.99	24.38	23.37
x2 = 0.351	24.57	23.79	23.5	22.88
x2 = 0.4933	24.2	23.58	22.8	22.12
x2 = 0.6187	23.84	22.94	22.54	21.8
x2 = 0.8296	23.48	22.64	22.46	21.64

[2H]O[2H] [water-d2] + CCO
surface tension liquid-gas [mN/m], [2]
Conditions	288.15 K	298.15 K	308.15 K	318.15 K
x2 = 0.0008	72.5	70.96	69.43	67.73
x2 = 0.0016	71.29	69.78	68.35	66.43
x2 = 0.0023	70.28	68.67	67.12	65.55
x2 = 0.0039	68.68	66.88	65.22	63.52
x2 = 0.007	65.31	63.61	61.92	60.23
x2 = 0.0116	62.13	59.42	58.1	56.98
x2 = 0.0191	57.62	53.65	52.63	51.86
x2 = 0.0295	52.54	50.9	48.05	47.3
x2 = 0.044	47.97	46.07	44.17	42.27
x2 = 0.0716	41.94	38.62	36.3	33.32
x2 = 0.1103	36.22	34.15	33.1	31.3
x2 = 0.157	32	30.33	29.1	27.58
x2 = 0.1991	30.52	29.16	28.14	27.03
x2 = 0.2462	29.15	28.17	27.39	26.56
x2 = 0.345	27.29	25.99	25.03	24.63
x2 = 0.4209	26.21	25.23	23.67	22.85
x2 = 0.4811	25.3	24.59	23.56	22.7
x2 = 0.5703	24.34	23.44	23.02	22.3
x2 = 0.6752	23.36	22.45	21.97	21.57
x2 = 0.7572	22.98	21.59	20.92	20.9
x2 = 0.8618	22.37	21.48	20.41	20.11

[2H]O[2H] [water-d2] + CO
surface tension liquid-gas [mN/m], [2]
Conditions	288.15 K	298.15 K	308.15 K	318.15 K
x2 = 0.0045	71.03	69.55	68.1	66.54
x2 = 0.0154	66.2	65.13	64.17	62.8
x2 = 0.0304	61.24	60.45	59.67	58.88
x2 = 0.0509	56.43	55.33	54.09	52.97
x2 = 0.0707	52.83	52.04	51.25	50.48
x2 = 0.0896	50.23	49.45	48.65	47.92
x2 = 0.1252	45.79	45.01	44.56	42.8
x2 = 0.1737	42.45	41.8	40.26	39.66
x2 = 0.2171	38.51	38.07	37.7	36.61
x2 = 0.2684	36.01	35.49	35.1	34.16
x2 = 0.3133	34.68	34.05	33.49	32.65
x2 = 0.353	33.4	32.79	32.05	31.79
x2 = 0.4271	31.83	30.79	30.29	29.42
x2 = 0.5279	29.14	29.01	28.68	27.75
x2 = 0.691	26.15	25.65	25.06	24.38
x2 = 0.8173	23.49	22.96	22.48	21.75
